23 molecules from patent publication EP4624466A1, “DEGRADER FOR DECOMPOSING CMET PROTEIN, AND PHARMACEUTICAL COMPOSITION COMPRISING SAME” (Innocure Therapeutics, Inc., priority 2022, dated 2024) can be followed below.

Where two headings read alike, the source gives them in different places. Where only a bound is given, the exact number is not on record here.

One test has as its system MKN-45. Put plainly: Cell viability / antiproliferative assay (WST-8), MKN-45.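 Also: MKN-45 is a human gastric cancer line overexpressing c-MET, growth inhibition read as WST-8 formazan absorbance at 450 nm after 2 h dye incubation.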 The settings on record: read-out: MKN-45 IC50. In general terms: Formazan colour is commonly taken as a measure of viable cells.
Another test concerns the target c-MET (Homo sapiens, UniProt P08581). Put plainly: c-MET protein degradation (Simple Western), MKN-45. Type of test: cell-based. Set-up: assess the resolution of the compound of the present invention for c-MET expressed in cells; endogenous in cells; host or cells: MKN45 (human gastric cancer). The settings on record: c-MET overexpressing gastric cancer cell line MKN-45, treated 24 hours. How it is done: In order to assess the resolution of the compound of the present invention for c-MET expressed in cells, cells were dispensed in a 12-well plate at a concentration of 2 × 10^5 cells/well, and then gastric cancer cell lines were treated with samples for 24 hours and lung cancer cell lines were treated for 48 hours. Cell lysates were collected using a scraper on ice, centrifuged at 4°C15,000 rpm for 30 min to obtain a protein-containing supernatant. Protein expression was then measured using the Simple Western Automated Western Blot System Abby instrument using 3 µg of protein for each sample. SDS and heat-induced denaturation proteins were separated by molecular weight, attached to capillary, reacted with anti-c-MET or anti-GAPDH antibodies, which are primary antibodies, and then reacted with HRP-conjugated secondary antibodies, and analyzed the protein expression signal with compass software. Protein expression was normalized based on the expression value of GAPDH, and protein development in each sample was measured as a percentage (%) based on 100% of samples treated with 0.1% DMSO carriers, and DC50 (concentration of a compound where 50% protein inhibition is achieved) was calculated from the change in protein expression amount due to compound treatment.

Setting [1] is: MKN-45 cells, 72 hours, WST-8, Table 1.
Where [2] appears, read: MKN-45 cells, 72 hours, WST-8, Table 2.

c-MET, sequence (P08581 25-1390): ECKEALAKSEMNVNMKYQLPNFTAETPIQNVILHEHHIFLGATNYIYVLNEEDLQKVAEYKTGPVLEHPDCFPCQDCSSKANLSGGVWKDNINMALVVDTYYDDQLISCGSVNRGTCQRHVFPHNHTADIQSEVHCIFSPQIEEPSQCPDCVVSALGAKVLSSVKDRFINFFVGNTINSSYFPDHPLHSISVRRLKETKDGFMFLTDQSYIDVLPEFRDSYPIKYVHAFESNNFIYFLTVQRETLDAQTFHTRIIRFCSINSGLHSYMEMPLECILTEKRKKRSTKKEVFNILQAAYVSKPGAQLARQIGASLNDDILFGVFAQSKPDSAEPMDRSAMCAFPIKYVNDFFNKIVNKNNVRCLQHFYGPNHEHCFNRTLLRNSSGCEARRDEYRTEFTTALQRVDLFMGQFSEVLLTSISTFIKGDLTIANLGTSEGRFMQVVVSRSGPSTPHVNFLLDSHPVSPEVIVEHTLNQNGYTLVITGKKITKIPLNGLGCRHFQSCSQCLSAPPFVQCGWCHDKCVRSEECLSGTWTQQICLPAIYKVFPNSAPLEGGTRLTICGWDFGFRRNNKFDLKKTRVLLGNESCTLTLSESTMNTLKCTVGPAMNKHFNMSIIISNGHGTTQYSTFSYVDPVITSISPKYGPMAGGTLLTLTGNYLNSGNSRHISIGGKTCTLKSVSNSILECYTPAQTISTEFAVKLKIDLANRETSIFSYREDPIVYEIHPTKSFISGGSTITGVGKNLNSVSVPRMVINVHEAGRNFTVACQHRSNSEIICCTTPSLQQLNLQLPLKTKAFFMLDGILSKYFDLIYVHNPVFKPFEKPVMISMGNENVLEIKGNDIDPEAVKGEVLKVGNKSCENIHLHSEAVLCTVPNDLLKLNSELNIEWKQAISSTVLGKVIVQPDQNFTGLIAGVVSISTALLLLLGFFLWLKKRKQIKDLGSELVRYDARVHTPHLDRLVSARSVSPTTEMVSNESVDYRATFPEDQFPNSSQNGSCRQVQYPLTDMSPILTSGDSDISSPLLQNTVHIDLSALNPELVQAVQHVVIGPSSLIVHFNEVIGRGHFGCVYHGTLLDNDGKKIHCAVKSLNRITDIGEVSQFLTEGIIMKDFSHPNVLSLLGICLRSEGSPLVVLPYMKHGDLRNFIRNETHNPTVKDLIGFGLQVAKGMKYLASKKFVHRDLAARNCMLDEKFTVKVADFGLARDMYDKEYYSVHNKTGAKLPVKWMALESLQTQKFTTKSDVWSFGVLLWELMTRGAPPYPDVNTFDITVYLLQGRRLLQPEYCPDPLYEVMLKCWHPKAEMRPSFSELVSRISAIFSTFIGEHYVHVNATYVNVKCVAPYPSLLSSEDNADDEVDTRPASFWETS

One may read the IC50 as the concentration that gives 50% inhibition. In general, DC50 refers to the concentration giving 50% degradation. A lower DC50 goes with degradation at low concentration. On to `Cc1nn(C2CCC(=O)NC2=O)c(=O)c2c(NCC(=O)N3CCC(COc4cnc(-c5cccc(Cn6nc(-c7cccc(C#N)c7)ccc6=O)c5)nc4)CC3)cccc12` (stereo not shown) [ICT-0000981], for which the IC50 with MKN-45 (Homo sapiens, MKN-45, 72 h) was < 100 nM. For the same molecule, the DC50 on c-MET (Table 2) was > 1000 nM.

For `Cc1nn(C2CCC(=O)NC2=O)c(=O)c2ccc(N3CCN(CC(=O)N4CCC(COc5cnc(-c6cccc(Cn7nc(-c8cccc(C#N)c8)ccc7=O)c6)nc5)CC4)CC3)cc12` (stereo not shown) [ICT-0001173], in the test on MKN-45 (Homo sapiens, MKN-45, 72 h), the half-maximal inhibitory concentration (IC50) is < 100 nM. Moreover, the DC50 on c-MET (Table 2) is < 100 nM.

Take `Cc1nn(C2CCC(=O)NC2=O)c(=O)c2ccc(N3CCN(CC4CN(CC(=O)N5CCC(COc6cnc(-c7cccc(Cn8nc(-c9cccc(C#N)c9)ccc8=O)c7)nc6)CC5)C4)CC3)cc12` (stereo not shown) [ICT-0001253]: the half-inhibitory concentration (IC50) in the test with MKN-45 (Homo sapiens, MKN-45, 72 h) is < 100 nM. Besides, the DC50 on c-MET (Table 2) is < 100 nM.

Consider `Cn1cc(-c2cnc3c(nnn3C[C@@H]3CN(c4ncc(-c5ccc(CN6CCN(C(=O)COCCOCCOCCOCCNc7ccc8c(=O)n(C9CCC(=O)NC9=O)ncc8c7)CC6)cc5)cn4)CCO3)n2)cn1` (stereo partly drawn) [ICT-0000939, 3-[6-(15-{4-[(4-{2-[(2S)-2-{[5-(1-methyl-1H-pyrazole-4-yl)-1H-[1,2,3]triazolo[4,5-b]pyrazine-1-yl]methyl}morpholine-4-il]pyrimidine-5-yl}phenyl)methyl]piperazine-1-yl}-15-oxo-4,7,10,13-tetraoxa-1-azpentadecan-1-yl)-1-oxo-1,2-dihydroptalazine-2-yl]piperidin-2,6-dione], for which, in the test on MKN-45 (setting [1]), the 50% inhibitory concentration (IC50) lay within 100 to 1000 nM. Further, on c-MET (Table 1), the half-maximal degradation concentration (DC50) is > 1000 nM.

On to `Cc1nn(C2CCC(=O)NC2=O)c(=O)c2cc(N3CCC(N4CCN(CC(=O)N5CCC(COc6cnc(-c7cccc(Cn8nc(-c9cccc(C#N)c9)ccc8=O)c7)nc6)CC5)CC4)CC3)ccc12` (stereo not shown) [ICT-0001270], for which the IC50 in the test with MKN-45 (Homo sapiens, MKN-45, 72 h) was < 100 nM. The 50% degradation concentration (DC50) on c-MET (Table 2) was < 100 nM.

Consider `Cc1nn(C2CCC(=O)NC2=O)c(=O)c2cc(N3CCC(N4CCN(C(=O)CN5CCC(COc6cnc(-c7cccc(Cn8nc(-c9cccc(C#N)c9)ccc8=O)c7)nc6)CC5)CC4)CC3)ccc12` (stereo not shown) [ICT-0001233, 3-(1-(3-(5-((1-(2-(4-(1-(3-(2,6-dioxopiperidine-3-yl)-1-methyl-4-oxo-3,4-dihydropthalazine-6-yl)piperidine-4-yl)piperazine-1-yl)2-oxoethyl)piperidine-4-il)methoxy)pyrimidine-2-yl)benzyl)6-oxo-1,6-dihydropyridine-3-yl)benzonitrile], for which the half-maximal inhibitory concentration (IC50) in the test on MKN-45 (Homo sapiens, MKN-45, 72 h) is < 100 nM. Moreover, the half-maximal degradation concentration (DC50) on c-MET (Table 2) is < 100 nM.

Take `N#Cc1cccc(-c2ccc(=O)n(Cc3cccc(-c4ncc(OCC5CCN(C(=O)CCCN6CCN(c7ccc8c(=O)n(C9CCC(=O)NC9=O)ncc8c7)CC6)CC5)cn4)c3)n2)c1` (stereo not shown) [ICT-0001200]: the IC50 with MKN-45 (Homo sapiens, MKN-45, 72 h) was < 100 nM. For the same molecule, the DC50 on c-MET (Table 2) is < 100 nM.

With `Cn1cc(-c2cnc3c(nnn3C[C@@H]3CN(c4ncc(-c5ccc(CN6CCN(C(=O)COCCOCCOCCNc7ccc8c(=O)n(C9CCC(=O)NC9=O)ncc8c7)CC6)cc5)cn4)CCO3)n2)cn1` (stereo partly drawn) [ICT-0000938, 3-[6-(12-{4-[(4-{2-[(2S)-2-{[5-(1-methyl-1H-pyrazole-4-yl)-1H-[1,2,3]triazolo[4,5-b]pyrazine-1-yl]methyl}morpholine-4-day]pyrimidine-5-yl}phenyl)methyl]piperazine-1-yl}-12-oxo-4,7,10-trioxa-1-azadodecane-1-yl)-1-oxo-1,2-dihydroptalazine-2-yl]piperidine-2,6-dione], the 50% inhibitory concentration (IC50) with MKN-45 (Homo sapiens, MKN-45, 72 h) fell in the range of 100 to 1000 nM. On c-MET (Table 1), the 50% degradation concentration (DC50) was > 1000 nM.

Regarding `N#Cc1cccc(-c2ccc(=O)n(Cc3cccc(-c4ncc(OCC5CCN(C(=O)CCCCCCNc6ccc7c(=O)n(C8CCC(=O)NC8=O)ncc7c6)CC5)cn4)c3)n2)c1` (stereo not shown) [ICT-0000985, 3-(1-{[3-(5-{[1-(7-{[2-(2,6-dioxopiperidin-3-yl)-1-oxo-1,2-dihydropthalazine-6-yl]amino}heptanoyl)piperidine-4-il]methoxy}pyrimidine-2-yl)phenyl]methyl}-6-oxo-1,6-dihydropyridazine-3-yl)benzonitrile], the IC50 in the test on MKN-45 (Homo sapiens, MKN-45, 72 h) was < 100 nM. Further, the DC50 at c-MET (Table 2) was < 100 nM.

For the molecule `N#Cc1cccc(-c2ccc(=O)n(Cc3cccc(-c4ncc(OCC5CCN(C(=O)COCCOCCNc6ccc7c(=O)n(C8CCC(=O)NC8=O)ncc7c6)CC5)cn4)c3)n2)c1` (stereo not shown) [ICT-0000986], the IC50 in the test on MKN-45 (Homo sapiens, MKN-45, 72 h) was < 100 nM. For the same molecule, the DC50 on c-MET (Table 2) was < 100 nM.

On to `Cn1cc(-c2cnc3c(nnn3C[C@@H]3CN(c4ncc(-c5ccc(CN6CCN(C(=O)CN7CCN(c8ccc9c(=O)n(C%10CCC(=O)NC%10=O)ncc9c8)CC7)CC6)cc5)cn4)CCO3)n2)cn1` (stereo partly shown) [ICT-0001109], for which, in the test on MKN-45 (Homo sapiens, MKN-45, 72 h), the IC50 is < 100 nM. The half-maximal degradation concentration (DC50) at c-MET (Table 1) is < 100 nM.

For `Cn1cc(-c2cnc3c(nnn3C[C@@H]3CN(c4ncc(-c5ccc(CN6CCN(C(=O)CCCCNc7cccc8cnn(C9CCC(=O)NC9=O)c(=O)c78)CC6)cc5)cn4)CCO3)n2)cn1` (stereo partly drawn) [ICT-0000959, 3-{8-[(5-{4-[(4-{2-[(2S)-2-{[5-(1-methyl-1H-pyrazole-4-yl)-1H-[1,2,3]triazolo[4,5-b]pyrazine-1-yl]methyl}morpholine-4-il]pyrimidine-5-yl}phenyl)methyl]piperazine-1-yl}-5-oxopentyl)amino]-1-oxo-1,2-dihydropthalazine-2-yl}piperidine-2,6-dione], the concentration for half-maximal inhibition (IC50) in the test on MKN-45 (setting [1]) was < 100 nM. In addition, the half-maximal degradation concentration (DC50) on c-MET (Table 1) is < 100 nM.

On to `Cc1nn(C2CCC(=O)NC2=O)c(=O)c2cc(N3CCC(CN4CCN(C(=O)CN5CCC(COc6cnc(-c7cccc(Cn8nc(-c9cccc(C#N)c9)ccc8=O)c7)nc6)CC5)CC4)CC3)ccc12` (stereo not shown) [ICT-0001234], for which the IC50 in the test with MKN-45 (Homo sapiens, MKN-45, 72 h) is < 100 nM. Further, the DC50 at c-MET (Table 2) is > 1000 nM.

In the case of `Cc1nn(C2CCC(=O)NC2=O)c(=O)c2ccc(N3CCN(C(=O)CN4CCC(COc5cnc(-c6cccc(Cn7nc(-c8cccc(C#N)c8)ccc7=O)c6)nc5)CC4)CC3)cc12` (stereo not shown) [ICT-0001177, 3-(1-{[3-(5-{[1-(2-{4-[2-(2,6-dioxopiperidin-3-yl)-4-methyl-1-oxo-1,2-dihydropthalazine-6-yl]piperazine-1-yl}-2-oxoethyl)piperidine-4-yl]methoxy}pyrimidine-2-yl)phenyl]methyl}-6-oxo-1,6-dihydropyridazine-3-yl)benzonitrile], the IC50 with MKN-45 (Homo sapiens, MKN-45, 72 h) is < 100 nM. Besides, the 50% degradation concentration (DC50) on c-MET (Table 2) is < 100 nM.

Turning to `Cc1nn(C2CCC(=O)NC2=O)c(=O)c2cc(N3CCO[C@H](CN4CCN(CC(=O)N5CCC(COc6cnc(-c7cccc(Cn8nc(-c9cccc(C#N)c9)ccc8=O)c7)nc6)CC5)CC4)C3)ccc12` (stereo partly drawn) [ICT-0001271, 3-(1-(3-(5-((1-(2-(4-(((2R)-4-(3-(2,6-dioxopiperidin-3-yl)-1-methyl-4-oxo-3,4-dihydrophthalazine-6-yl)morpholine-2-il)methyl)piperazine-1-il)acetyl)piperidine-4-il)methoxy)pyrimidine-2-yl)benzyl)6-oxo-1,6-dihydropyridazine-3-yl)benzonitrile], the IC50 in the test with MKN-45 (setting [2]) is < 100 nM. The half-maximal degradation concentration (DC50) at c-MET (Table 2) was < 100 nM.

In the case of `Cc1nn(C2CCC(=O)NC2=O)c(=O)c2ccc(N3CCN(C[C@@H]4CN(C(=O)CN5CCC(COc6cnc(-c7cccc(Cn8nc(-c9cccc(C#N)c9)ccc8=O)c7)nc6)CC5)CCO4)CC3)cc12` (stereo partly shown) [ICT-0001258], the IC50 in the test with MKN-45 (Homo sapiens, MKN-45, 72 h) is < 100 nM. Also, on c-MET (Table 2), the DC50 was < 100 nM.

With `Cc1nn(C2CCC(=O)NC2=O)c(=O)c2ccc(N3CCN(CCC(=O)N4CCC(COc5cnc(-c6cccc(Cn7nc(-c8cccc(C#N)c8)ccc7=O)c6)nc5)CC4)CC3)cc12` (stereo not shown) [ICT-0001174], the IC50 with MKN-45 (Homo sapiens, MKN-45, 72 h) was < 100 nM. The 50% degradation concentration (DC50) on c-MET (Table 2) is < 100 nM.

Consider `Cc1nn(C2CCC(=O)NC2=O)c(=O)c2ccc(N3CCN(CC4CN(C(=O)CN5CCC(COc6cnc(-c7cccc(Cn8nc(-c9cccc(C#N)c9)ccc8=O)c7)nc6)CC5)C4)CC3)cc12` (stereo not shown) [ICT-0001235], for which the IC50 in the test on MKN-45 (Homo sapiens, MKN-45, 72 h) is < 100 nM. The DC50 at c-MET (Table 2) was < 100 nM.

Turning to `Cc1nn(C2CCC(=O)NC2=O)c(=O)c2ccc(N3CCN(CCCCC(=O)N4CCC(COc5cnc(-c6cccc(Cn7nc(-c8cccc(C#N)c8)ccc7=O)c6)nc5)CC4)CC3)cc12` (stereo not shown) [ICT-0001176], the half-maximal inhibitory concentration (IC50) in the test with MKN-45 (Homo sapiens, MKN-45, 72 h) was < 100 nM. For the same molecule, the DC50 on c-MET (Table 2) was < 100 nM.

Take `N#Cc1cccc(-c2ccc(=O)n(Cc3cccc(-c4ncc(OCC5CCN(CC(=O)NCCCCCc6ccc7c(=O)n(C8CCC(=O)NC8=O)ncc7c6)CC5)cn4)c3)n2)c1` (stereo not shown) [ICT-0001206]: the concentration for half-maximal inhibition (IC50) in the test with MKN-45 (Homo sapiens, MKN-45, 72 h) is < 100 nM. The DC50 on c-MET (Table 2) is < 100 nM.

For `Cc1nn(C2CCC(=O)NC2=O)c(=O)c2ccc(N3CCC(CN4CCN(CC(=O)N5CCC(COc6cnc(-c7cccc(Cn8nc(-c9cccc(C#N)c9)ccc8=O)c7)nc6)CC5)CC4)CC3)cc12` (stereo not shown) [ICT-0001213], the IC50 with MKN-45 (Homo sapiens, MKN-45, 72 h) was < 100 nM. Moreover, the DC50 on c-MET (Table 2) is < 100 nM.

On to `Cc1nn(C2CCC(=O)NC2=O)c(=O)c2cc(N3CCC(CN4CCN(CC(=O)N5CCC(COc6cnc(-c7cccc(Cn8nc(-c9cccc(C#N)c9)ccc8=O)c7)nc6)CC5)CC4)CC3)ccc12` (stereo not shown) [ICT-0001239], for which the half-maximal inhibitory concentration (IC50) in the test on MKN-45 (Homo sapiens, MKN-45, 72 h) is < 100 nM. Besides, at c-MET (Table 2), the DC50 was < 100 nM.

As to `N#Cc1cccc(-c2ccc(=O)n(Cc3cccc(-c4ncc(OCC5CCN(C(=O)COCCOCCOCCNc6ccc7c(=O)n(C8CCC(=O)NC8=O)ncc7c6)CC5)cn4)c3)n2)c1` (stereo not shown) [ICT-0000987], the IC50 with MKN-45 (setting [2]) was < 100 nM. This molecule displayed a DC50 on c-MET (Table 2) of 100 to 1000 nM.
